Earlier results on one molecule are cited in patent US20040019096A1, “Novel formulations of carvedilol” (priority 2003, published 2004).

The conditions of the data set: immediate release formulation.

As to `COc1ccccc1OCCNCC(O)COc1cccc2[nH]c3ccccc3c12` (centres unmarked) [carvedilol], the “absorption following oral administration” value was “rapidly and extensively absorbed”. Further, where the note is “oral administration”, the terminal elimination half-life was 7 to 10 h.
